Laboratory results published in PMC3390344, “Antibacterial Activity and Mechanism of a Scorpion Venom Peptide Derivative In Vitro and In Vivo” (PLoS ONE, 2012).
Ends that are not written are not given here.

Experiments:
[1] = system: methicillin-resistant coagulase-negative Staphylococcus (MRCNS) P1369; test: microbe, parasite or virus in culture; format: cell-based; conditions: P1369, methicillin resistant (MRCNS) clinical isolate; repeated at least three times
Protocol: (§1) The MIC was determined via a microdilution assay in 96-well microtiter plates according to the broth microdilution guideline of Clinical and Laboratory Standards Institute (CLSI).

E. coli AB94012 [2] = format: cell-based; conditions: E. coli AB94012, Gram-negative; broth microdilution, 96-well
Protocol: These peptides were used to determine the inhibitory activities against the representative Gram-positive bacteria S. aureus AB94004 and the representative Gram-negative bacteria E. coli AB94012.
(§2) S. aureus AB94004, S. aureus ATCC 25923, E. coli AB94012, E. coli ATCC 25922, Pseudomonas aeruginosa AB93066, Bacillus thuringiensis AB92037, Bacillus subtilis AB91021, and Micrococcus luteus AB93113 were purchased from the China Center of Type Culture Collection (CCTCC).
as §1

E. coli ATCC 25922 = test: MIC, broth microdilution (CLSI); format: cell-based; conditions: E. coli ATCC 25922, Gram-negative, 96-well
Protocol: as §2, §1

S. aureus ATCC 25923 = test: MIC, broth microdilution (CLSI); format: cell-based; conditions: S. aureus ATCC 25923, Gram-positive, 96-well
Protocol: as §2, §1

B. subtilis AB91021 = test: MIC, broth microdilution (CLSI); format: cell-based, Bacillus subtilis; conditions: B. subtilis AB91021, Gram-positive, 96-well
Protocol: as §2, §1

[3] = system: methicillin-resistant S. aureus (MRSA) P1374; test: microbe, parasite or virus in culture; format: cell-based; conditions: P1374, methicillin resistant (MRSA) clinical isolate; repeated at least three times
Protocol: (§3) Clinical isolates were obtained from the 302nd military hospital of Beijing, China, including penicillin-resistant S. aureus (PRSA) P1383, penicillin-resistant S. epidermidis (PRSE) P1389, methicillin-resistant S. aureus (MRSA) P1381, P1386 and P1374, methicillin-resistant coagulase-negative Staphylococcus (MRCNS) P1369, and penicillin-sensitive S. epidermidis (PSSE) P1111.
as §1

[4] = system: methicillin-resistant S. aureus (MRSA) P1381; test: microbe, parasite or virus in culture; format: cell-based; conditions: P1381, methicillin resistant (MRSA) clinical isolate; repeated at least three times
Protocol: as §3, §1

[5] = system: penicillin-resistant S. aureus (PRSA) P1383; test: microbe, parasite or virus in culture; format: cell-based; conditions: P1383, penicillin resistant (PRSA) clinical isolate; repeated at least three times
Protocol: as §3, §1

[6] = system: methicillin-resistant S. aureus (MRSA) P1386; test: microbe, parasite or virus in culture; format: cell-based; conditions: P1386, methicillin resistant (MRSA) clinical isolate; repeated at least three times
Protocol: as §3, §1

[7] = system: penicillin-sensitive S. epidermidis (PSSE) P1111; test: microbe, parasite or virus in culture; format: cell-based; conditions: P1111, penicillin sensitive (PSSE) clinical isolate; repeated at least three times
Protocol: as §3, §1

[8] = system: penicillin-resistant S. epidermidis (PRSE) P1389; test: microbe, parasite or virus in culture; format: cell-based; conditions: P1389, penicillin resistant (PRSE) clinical isolate; repeated at least three times
Protocol: as §3, §1

B. thuringiensis AB92037 = test: MIC, broth microdilution (CLSI); format: cell-based, Bacillus thuringiensis; conditions: B. thuringiensis AB92037, Gram-positive, 96-well
Protocol: as §2, §1

S. aureus AB94004 [9] = test: Bactericidal assay (time-killing); format: cell-based; conditions: samples at 0, 5, 15, 30, 60 min, colony counts, average of three dishes
Protocol: Figure 5 Bactericidal assays of the Kn2-7 and BmKn2 peptides against S. aureus and E. coli AB94012. Set point indicates untreated bacteria, and 0 minutes was defined as the time of the first sample collection, which was immediately after mixing bacteria and Kn2-7 or BmKn2. The other samples were collected at 5 min, 15 min, 30 min or 60 min. All of the counts were the average of three dishes, and the experiment was repeated at least three times. (A) Time-killing curve of Kn2-7 against S. aureus AB94004. (B) Time-killing curve of BmKn2 against S. aureus AB94004. (C) Time-killing curve of Kn2-7 against E. coli AB94012.
Bactericidal curves for Kn2-7 and BmKn2 were determined against S. aureus AB94004 and E. coli AB94012. A 400 µl aliquot of the peptide solution was added to 1,600 µl of a bacterial suspension. At each time point, 200 µl of the treated bacterial suspension was transferred to a sterilized 1.5-ml tube. After centrifugation at 1,000×g for 5 min, the supernatant was removed, and the pellet was resuspended in 200 µl of LB medium. The bacterial suspensions were placed on agar plates and incubated at 37°C until viable colonies could be counted.

E. coli AB94012 [10] = test: Transmission electron microscopy; format: cell-based; conditions: E. coli AB94012, 1×MIC, treated for 2 min, semi-thin sections
Protocol: (§4) Figure 6 Transmission electron microscopy of S. aureus and E. coli treated with Kn2-7. (A) Transmission electron microscopy was performed with Kn2-7-treated S. aureus. (A1), (A2) and (A3) were negative controls. (A4), (A5) and (A6) show S. aureus treated with Kn2-7 for 2 min. (A7), (A8) and (A9) show S. aureus treated with BmKn2 for 2 min. (B) Transmission electron microscopy was performed with Kn2-7-treated E. coli. (B1), (B2) and (B3) were the negative controls. (B4), (B5) and (B6) show E. coli treated with Kn2-7 for 2 min. (B7), (B8) and (B9) show E. coli treated with BmKn2 for 2 min.
(§5) Overnight-cultured S. aureus AB94004 and E. coli AB94012 were transferred to LB medium and cultured to the exponential phase. A 200 µl aliquot of the peptide solution was added to 800 µl of the bacterial suspensions at the final concentration of 1×MIC. The samples were cut into semi-thin sections. Microscopy was performed using a HITACHI H-8100 Transmission Electron Microscope.

S. aureus AB94004 [11] = test: Transmission electron microscopy; format: cell-based; conditions: 1×MIC, treated for 2 min, semi-thin sections
Protocol: as §4, §5

Substance: FIGAIARLLSKIF-NH2 [BmKn2]
- MIC [1]: 12.5 mg/L
- MIC (E. coli AB94012 [2]): >100 mg/L
- MIC (E. coli ATCC 25922): >100 mg/L
- MIC (S. aureus ATCC 25923): 6.25 mg/L
- MIC (B. subtilis AB91021): 12.5 mg/L
- MIC [3]: 12.5 mg/L
- MIC [4]: 12.5 mg/L
- MIC [5]: 12.5 mg/L
- MIC [6]: 12.5 mg/L
- MIC [7]: 6.25 mg/L
- MIC [8]: 12.5 mg/L
- MIC (B. thuringiensis AB92037): 12.5 mg/L

Substance: FIKRIARLLRKIF [Kn2-7]
- Bactericidal effect (time-killing curve) (S. aureus AB94004 [9]): bactericidal effects
- Structural changes of cell wall and membrane (TEM) (E. coli AB94012 [10]): formed microspheres that surrounded the bacteria
- Structural changes of cell wall and membrane (TEM) (S. aureus AB94004 [11]): disrupted immediately
